The nature of this data set: In vitro dissolution procedure, USP Basket Method (Apparatus I). The data set is classed as physicochemical. As to conditions: 24 hours; for release of medicament, dependence on amount of high melting glyceride: Example 1, FIG. 1, Compritol 888 15-30%, hydrochloride; for release of medicament, dependence on type of medicament: Example 6, FIG. 6, 20% medicament, Methocel E10 P 3%, polysorbate 80 1%; for release of medicament, dependence on amount of surfactant: Example 7, FIG. 7, polysorbate 80 2.5, 5.0, 10.0%. As to the method: The dissolution release of the formulations was determined by the USP Basket Method (Apparatus I). By this method, samples are tested in a 40 mesh basket rotating at 100 RPM. Release media were used in a volume of 900 ml per dissolution vessel, maintained at 37° C. Double distilled deionized water was generally used as the dissolution media. Some formulations were also evaluated in simulated gastric fluid (0.1N hydrochloric acid, pH=1.2, no enzyme added) or simulated intestinal fluid (0.05 M phosphate buffer, pH=7.4, no enzyme added). Nine samples of 3.0 ml each were automatically collected at 2, 4, 6, […], 12, 14, 20 and 24 hours. The absorbency of the samples were measured at the peak wavelength in the ultraviolet spectrum with Hewliet Packard model 8453 spectrophotometer. The absorbency values were converted to percentages of added medicament that was released.

The source of these data is patent publication US6491950B1, “Controlled release pharmaceutical composition” (Kos Pharmaceuticals, Inc., priority 2000, dated 2002).

Each structure is given as a SMILES string. “Also recorded” adds a separate entry of the source. Counter-ions that a name gives are not always drawn.

In the case of `Cn1c(=O)c2c(ncn2C)n(C)c1=O` [caffeine], the “release of medicament, dependence on cellulosic polymer” value (Example 9, FIG. 9, caffeine 20%, Methocel E10 P, Methocel K100M, Ethocel P20 or no polymer, olive oil) is “faster when the formulation contains Methocel K100M than Ethocel P20; also recorded: sustained over a 24 hour period”.

Consider `OCCOCCN1CCN(C(c2ccccc2)c2ccc(Cl)cc2)CC1` (stereo not shown) [hydroxyzine hydrochloride], for which the “release of medicament, dependence on amount of high melting glyceride” value was “moderately faster as the amount of higher fatty acid ester in the formulation is increased over a small range and then levels off” (hydroxyzine HCl 20%, soybean oil); “consistent sustained release over 24 hours” (hydroxyzine HCl 20%, soybean oil, listed as hydroxyzine HCl). For the same molecule, where the note is “Example 2, FIG. 2, hydroxyzine HCl 20%, Compritol 888 25%, oil 51%”, the “release of medicament, dependence on type of oil” value is listed as “sustained at the same level over the period”. The “release of medicament, dependence on type of high melting glyceride” value (Example 3, FIG. 3, hydroxyzine HCl 20%, glyceride 25%, soybean oil) is “fastest with Precirol AT05 slowest with Compritol 888/WL 2155, and intermediate with Compritol 888”. The “release of medicament, dependence on type of cellulosic polymer” value (Example 4, FIG. 4, hydroxyzine HCl 20%, polymer 3% (Methocel E10 P, K15M, A4M, Ethocel P20)) was “released considerably faster from a formulation of Methocel K15M than Ethocel P20”. Besides, the “release of medicament, dependence on type of medicament” value (Compritol 888 25%, soybean oil) is on record as “released faster than niacin or caffeine”.

For the molecule `COCCc1ccc(OCC(O)CNC(C)C)cc1` (stereo not shown) [metoprolol tartrate], the “release of medicament, dependence on type of medicament” value (Compritol 888 25%, soybean oil) was “released faster than niacin or caffeine”. Further, for the setting “Example 11, FIG. 11, metoprolol tartrate 20%, LH 11, LH 22 or LH 30 3%, olive oil”, the “release of medicament, low hydroxypropyl ether celluloses” value is listed as “sustained over a 24 hour period; also recorded: essentially the same for each cellulosic polymer of the formulation”. Besides, the “release of medicament, dependence on amount of Compritol 888” value (Example 12, FIG. 12, metoprolol tartrate 20%, Compritol 888 15-35%, olive oil) is on record as “sustained over 24 hours; also recorded: higher at the higher amounts of compritol”.

On to `O=C(O)c1cccnc1` [niacin], for which the “release of medicament, dependence on amount of surfactant” value is, setting by setting: (niacin 20%, olive oil) “faster the higher the level of the surfactant above a level of about 5.0% of the total amount of the formulation”; (niacin 20%, olive oil, listed as Niacin) “sustained over 24 hours”. Besides, the “release of medicament, with or without cellulosic polymer” value (Example 8, FIG. 8, niacin 20%, Methocel E10 P 3% or none, olive oil) is recorded as “released faster from a formulation containing Methocel E10P than from a formulation devoid of the cellulosic polymer”.
